Measurements from patent US6570018B2 (Pfizer Inc, priority 2000, dated 2003).
Counter-ions that a name gives are not always drawn.

What was measured:
[1] = stability of crystalline form versus the anhydrous mesylate salt; assay type: physicochemical; conditions: compared with the anhydrous mesylate salt

Row | SMILES | melting point [°C] | stability of crystalline form / shelf life [1]
1 | C[C@@H](C(=O)c1ccc(OCc2ccccc2)cc1)N1CCC(O)(c2ccccc2)CC1 | 102.5 to 103.8 | 
2 | C[C@@H]([C@@H](O)c1ccc(O)cc1)N1CCC(O)(c2ccccc2)CC1 [mesylate salt trihydrate, (1S,2S)-1-(4-Hydroxyphenyl)-2-(4-hydroxy-4-phenylpiperidino)-1-propanol, Methanesulfonate Salt Trihydrate] |  | more stable crystalline form than the anhydrous mesylate salt
